Where a name gives a salt, the structure may show the parent alone.
melting point | SMILES
121 to 122 °C | COCCN(C)Cc1ccc(NC(=O)C2=Cc3cc(-c4ccc(C)cc4)ccc3OCC2)cc1 [Compound 314, N-(4-((N-(2-methoxyethyl)-N-methylamino)methyl)phenyl)-7-(4-methylphenyl)-2,3-dihydro-1-benzoxepine-4-carboxamide]
175 to 176 °C | O=C(Nc1ccc(CN2CCCCC2)cc1)C1=Cc2cc(-c3ccc(F)cc3)ccc2CC1 [Compound 15, 7—(4-fluorophenyl)-N-[4—(piperidinomethyl)phenyl]-3,4-dihydronaphthalene-2-carboxamide]
188 to 190 °C | Cc1ccc(-c2csc(/C=C/C(=O)Nc3ccc(CN(C)C4CCOCC4)cc3)c2)cc1 [Compound 212, (E)-N-[4-[N-methyl-N-(tetrahydropyran-4-yl)aminomethyl]-phenyl)-3-[4—(4-methylphenyl)thiophen-2-yl]acrylamide]
147 to 148 °C | Cc1csc(-c2ccc3c(c2)C=C(C(=O)Nc2ccc(CN(C)C4CCOCC4)cc2)CCO3)c1 [Compound 292, N-[4-[N-methyl-N-(tetra-hydropyran-4-yl)aminomethyl]phenyl]-7-(4-methyl-2-thienyl)-2,3-dihydro-1-benzoxepine-4-carboxamide]
220 to 222 °C (dec.) | Cc1ccc(-c2ccc3c(c2)C=C(C(=O)Nc2ccc(C[N+](C)(C)C4CCOCC4)cc2)CCS3)cc1.[I-] [Compound 241, dimethyl-(N-(7-(4-methylphenyl)-2,3-dihydro-1-benzothiepine-4-carbonyl)-4-aminobenzyl)-N-(4-tetrahydropyranyl)ammonium iodide]
212 to 213 °C | Cc1ccc(-c2ccc3c(c2)C=C(C(=O)Nc2ccc(C(O)CN4CCCCC4)cc2)CCO3)cc1 (stereo not drawn) [Compound 145, N-(4—(1-hydroxy-2-piperidinoethyl)phenyl)-7—(4-methylphenyl)-2,3-dihydro-1-benzoxepine-4-carboxamide]
175 to 176 °C | Cc1ccc(S(=O)(=O)N2CCC(c3cccc4c3CCCC(C(=O)Nc3ccc(CN(C)C5CCOCC5)cc3)=C4)CC2)cc1 [Compound 289, 4-[1-(4-methylphenylsulfonyl)piperidin-4-yl]-N-(4-(N-methyl-N-(tetrahydropyran-4-yl)aminomethyl]phenyl]-6,7-dihydro-5H-benzocycloheptene-8-carboxamide]
185 to 187 °C | Cc1ccc(-c2ccc3c(c2)C=C(C(=O)Nc2ccc(CN(C)C4CCOCC4)cc2)CCN3S(=O)(=O)C(F)(F)F)cc1 [Compound 321, 7-(4-methylphenyl)-N-[4-[[N-methyl-N-(tetrahydro-2H-pyran-4-yl)amino]methyl]-phenyl]-1-[(trifluoromethyl)sulfonyl]-2,3-dihydro-1-benzazepine-4-carboxamide]
169 to 171 °C | Cc1ccc(-c2cccc(/C=C/C(=O)Nc3ccc(Cc4ccccn4)cc3)c2)cc1 [Compound 190, (E)-N-[4—(2-pyridylmethyl)phenyl]-3—(4-methylphenyl)cinnamamide]
208 to 209 °C (dec.) | CN(C)c1ccc(-c2ccc3c(c2)C=C(C(=O)Nc2ccc(CN(C)C4CCOCC4)cc2)CCO3)cc1 [Compound 149, 7—(4-dimethylaminophenyl)-N-(4—((N-tetrahydropyran-4-yl-N-methylamino)methyl)phenyl)-2,3-dihydro-1-benzoxepine-4-carboxamide]
232 to 233 °C | COc1cccnc1C(O)c1ccc(NC(=O)C2=Cc3cc(-c4ccc(C)cc4)ccc3OCC2)cc1 (stereo not drawn) [Compound 169, N-[4-[hydroxy(3-methoxy-pyridin-2-yl)methyl]phenyl]-7—(4-methylphenyl)-2,3-dihydro-1-benzoxepine-4-carboxamide]
177 to 178 °C | O=C(Nc1ccc(CN2CCCCC2)cc1)c1ccc2ccc(-c3ccccc3)cc2c1 [Compound 58, N-[4—(piperidinomethyl)phenyl]-7-phenylnaphthalene-2-carboxamide]
242 °C (dec.) | COc1ccc[n+]([O-])c1C(O)c1ccc(NC(=O)C2=Cc3cc(-c4ccc(C)cc4)ccc3OCC2)cc1 (stereo not drawn) [Compound 170, N-[4-[hydroxy(3-methoxy-1-oxidopyridin-2-yl)methyl]phenyl]-7—(4-methylphenyl)-2,3-dihydro-1-benzoxepine-4-carboxamide]
183 to 185 °C | Cc1ccc(-c2cccc(/C=C/C(=O)Nc3ccc(Cc4cccc[n+]4[O-])cc3)c2)cc1 [Compound 191, (E)-N-[4—(1-oxidopyridin-2-ylmethyl)phenyl]-3—(4-methylphenyl)cinnamamide]
172 to 174 °C | CCOc1ccc(-c2ccc3c(c2)C=C(C(=O)Nc2ccc(CN(C)C4CCC5(CC4)OCCO5)cc2)CCO3)cc1 [Compound 287, 7-(4-ethoxyphenyl)-N-[4-[N-(4,4-ethylenedioxycyclohexyl)-N-methylaminomethyl]-phenyl]-2,3-dihydro-1-benzoxepine-4-carboxamide]
207 to 208 °C | COc1ccc(N2CCN(Cc3ccc(NC(=O)/C=C/c4cccc(-c5ccc(C)cc5)c4)cc3)CC2)cc1 [Compound 62, (E)-N-[4-[1—(4-methoxy-phenyl)-4-piperazinylmethyl]phenyl]-3—(4-methylphenyl)cinnamamide]

melting point | SMILES
219 to 220 °C | CCCP(=O)(CCC)Cc1ccc(NC(=O)C2=Cc3cc(-c4ccc(C)cc4)ccc3OCC2)cc1 [Compound 168, N-(4-dipropylphosphorylmethylphenyl)-7—(4-methylphenyl)-2,3-dihydro-1-benzoxepine-4-carboxamide]
170 to 171 °C | Cc1ccc(-c2ccc3c(c2)C=C(C(=O)Nc2ccc(CN(C)C4CCOCC4)cc2)CC(C)O3)cc1 (stereo not drawn) [Compound 104, 7—(4-methylphenyl)-2-methyl-N-(4—((N-tetrahydropyran-4-yl-N-methylamino)methyl)phenyl)-2,3-dihydro-1-benzoxepine-4-carboxamide]
176 to 178 °C | Cc1ccc(-c2cccc(/C=C/C(=O)Nc3ccc(C[N+]4(C)CCCCC4)cc3)c2)cc1 (as salt: iodide) [Compound 72, (E)-1-methyl-1-[4—(3—(4-methylphenyl)cinnamamido)benzyl]-piperidinium iodide]
206 to 208 °C | COCOc1ccc[n+]([O-])c1Cc1ccc(NC(=O)C2=Cc3cc(-c4ccc(C)cc4)ccc3OCC2)cc1 [Compound 173, N-[4—(1-oxido-3-methoxymethoxypyridin-2-ylmethyl)phenyl]-7—(4-methylphenyl)-2,3-dihydro-1-benzoxepine-4-carboxamide]
208 to 209 °C | Cc1ccc(-c2ccc3c(c2)C=C(C(=O)Nc2ccc(C[S+]([O-])Cc4ccccc4)cc2)CCO3)cc1 (stereo not drawn) [Compound 109, N-(4—(benzylsulfinylmethyl)phenyl)-7—(4-methylphenyl)-2,3-dihydro-1-benzoxepine-4-carboxamide]
220 to 221 °C (dec.) | Cc1ccc(-c2ccc3c(c2)C=C(C(=O)Nc2ccc(C[N+]4(C)CCCCC4)cc2)CCC3)cc1 (as salt: iodide) [Compound 92, 1—(N-(2—(4-methylphenyl)-6,7-dihydro-5H-benzocycloheptene-8-carbonyl)-4-aminobenzyl)-1-methylpiperidinium iodide]
201 to 202 °C | Cc1ccc(-c2ccc3c(c2)C=C(C(=O)Nc2ccc(CCN4CCCCC4)cc2)CCO3)cc1 [Compound 99, N-(4—(2-piperidinoethyl)phenyl)-7—(4-methylphenyl)-2,3-dihydro-1-benzoxepine-4-carboxamide]
150 to 151 °C | Cc1ccc(-c2ccc3c(c2)C=C(C(=O)Nc2ccc(CN(CCO)CCO)cc2)CC3)cc1 [Compound 51, N-[4-[N,N-bis(2-hydroxyethyl)-aminomethyl]phenyl]-7—(4-methylphenyl)-3,4-dihydronaphthalene-2-carboxamide]
187 to 188 °C | CN(Cc1ccc(NC(=O)C2=Cc3cc(-c4ccc(OC(F)(F)F)cc4)ccc3OCC2)cc1)C1CCOCC1 [Compound 186, N-[4-[N-methyl-N-(tetrahydropyran-4-yl)aminomethyl]phenyl]-7—(4-trifluoromethoxyphenyl)-2,3-dihydro-1-benzoxepine-4-carboxamide]
240 to 241 °C | CCP(=O)(CC)Cc1ccc(NC(=O)C2=Cc3cc(-c4ccc(C)cc4)ccc3OCC2)cc1 [Compound 163, N-(4-diethylphosphorylmethylphenyl)-7—(4-methylphenyl)-2,3-dihydro-1-benzoxepine-4-carboxamide]
203 to 204 °C | Cc1ccc(-c2ccc3c(c2)C=C(C(=O)Nc2ccc(CN4CCCCC4)cc2)CCS3)cc1 [Compound 93, 7—(4-methylphenyl)-N-(4-piperidinomethylphenyl)-2,3-dihydro-1-benzothiepine-4-carboxamide]
157 to 159 °C | O=C(Nc1ccc(CCN2CCCCC2)cc1)C1=Cc2cc(-c3ccccc3)ccc2CC1 [Compound 9, 7-phenyl-N-[4—(2-piperidinoethyl)phenyl]-3,4-dihydro-naphthalene-2-carboxamide]
186 to 187 °C | O=C(Nc1ccc(CN2CCOCC2)cc1)C1=Cc2cc(-c3ccccc3)ccc2CC1 [Compound 8, N-[4—(morpholinomethyl)-phenyl]-7-phenyl-3,4-dihydronaphthalene-2-carboxamide]
214 to 216 °C | Cc1ccc(-c2ccc3c(c2)C=C(C(=O)Nc2ccc(-c4cccnc4)cc2)CCO3)cc1 [Compound 164, N-[4—(3-pyridyl)phenyl]-7—(4-methylphenyl)-2,3-dihydro-1-benzoxepine-4-carboxamide]
187.5 to 188.5 °C | CN1CCC(C(=O)Nc2ccc(CN(C)C3CCOCC3)cc2)=Cc2cc(-c3ccc(C(F)(F)F)cc3)ccc21 [Compound 308, 1-methyl-N-[4-[[N-methyl-N-(tetrahydropyran-4-yl)amino]-methyl]phenyl]-7-(4-trifluoromethylphenyl)-2,3-dihydro-1-benzoazepine-4-carboxamide]
198 to 200 °C | Cc1ccc(-c2cccc(/C=C/C(=O)Nc3ccc(Cn4ccnc4)cc3)c2)cc1 [Compound 65, (E)-N-[4-[(imidazol-1-yl)methyl]phenyl]-3—(4-methylphenyl)cinnamamide]

SMILES | melting point
Cc1ccc(-c2ccc3c(c2)C=C(C(=O)Nc2ccc(C[N+]4(C)CCCCC4)cc2)CCO3)cc1 (as salt: chloride) [Compound 97, 1—(N-(7—(4-methylphenyl)-2,3-dihydro-1-benzoxepin-4-carbonyl)-4-aminobenzyl)-1-methylpiperidinium chloride] | 231 to 232 °C

Source: US6413947B1, “Anilide derivative, production and use thereof” (Takeda Chemical Industries, Ltd., priority 1997, dated 2002)
